We go through two compounds from patent publication US5763492A, “Methods for effecting memory enhancement mediated by non-steroidal sulfatase inhibitors” (Duguesne University of the Holy Ghost, priority 1996, dated 1998).

Common to all, as to assay type: in vivo, rat
In assay [1] the test system is scopolamine-induced amnesia in rats. In words: Passive avoidance test (Gemini Avoidance System), crossover latency, scopolamine-induced amnesia.
In the next assay the test system is liver sulfatase. In words: Liver sulfatase activity after IP dosing of rats. The note with it: for % Inhibition of liver sulfatase / Liver Sulfatase Activity: 30 mg/kg IP; for Liver Sulfatase Activity: mean ± SEM, P<0.01 vs control, corn oil control 164.10 ± 2.5. The protocol:
(§1) DU-14 was tested for its sulfatase inhibition in rats. 30 mg/kg of the compound was administered to rats IP for 15 days. Sulfatase inhibition was measured by the sulfatase activity in ng E1 S/μg protein/hr in the liver and brain as determined by methods known in the art. The results are presented below in Tables 1 and 2.

In the next assay the test system is brain sulfatase. In words: Brain sulfatase activity after IP dosing of rats. The note with it: 30 mg/kg IP; for Brain Sulfatase Activity: mean ± SEM, P<0.01 vs control, corn oil control 3.24 ± 0.32. The protocol:
as §1

“And” between values parts separate entries of the source, which are not always exact repeats. Equal entries are not always repeated. Structures can show the parent of a compound that is named as a salt.

`C[C@]12CC[C@H](OS(=O)(=O)O)CC1=CC[C@@H]1[C@@H]2CC[C@]2(C)C(=O)CC[C@@H]12` [DHEAS, dehydroepiandrosterone sulfate, reference compound] gave a maximum crossover latency in assay [1] (DHEAS 20 mg/Kg IP one hour before acquisition trial, scopolamine 1 mg/Kg IP 30 minutes before) of 262.5 ± 84.6 s. Besides, in assay [1] (DHEAS 5-70 mg/kg IP one hour before acquisition trial, bell shaped dose response curve), the “reversal of scopolamine-induced amnesia” value is on record as “significant (p≤0.05), reversal of scopolamine-induced amnesia”.

Turning to `CCCCCCCCCCCCCC(=O)NCCc1ccc(OS(N)(=O)=O)cc1` [DU-14], the crossover latency in assay [1] (DU-14 alone 30 mg/Kg IP daily for 15 days before acquisition trial, scopolamine) was 278.7±88.1; in assay [1] (DU-14 alone, single dose 30 mg/Kg IP four hours before acquisition trial) it was “failed to increase crossover latency”. The “reversal of scopolamine-induced amnesia” value in assay [1] (DU-14 alone daily for 15 days, 30 mg/Kg IP) was “significant (p≤0.05) reversal of scopolamine-induced amnesia”. Moreover, the “crossover latency, overall conclusion” value in assay [1] (summary of Example III) is given as “significant increase in crossover latency”. The “% Inhibition of liver sulfatase” value was 95.2% in the assay with liver sulfatase (1 Day); 97.6% and ~98% in the assay on liver sulfatase (15 Days, 30 mg/kg). The “Liver Sulfatase Activity” value in the assay with liver sulfatase (1 Day) was 7.85 ± 0.65 ng E1 S/μg protein/hr; in the assay on liver sulfatase (15 Days), 4.01 ± 0.23 ng E1 S/μg protein/hr. Moreover, the “liver sulfatase after only 1 day” value with liver sulfatase (1 day, from about 164) is recorded as “about 8”. Also, the “% Inhibition of brain sulfatase” value in the assay on brain sulfatase (1 Day) is on record as 14.8%. Moreover, the “Brain Sulfatase Activity” value worked out at 2.76 ± 0.27 pg E1 S/μg protein/hr with brain sulfatase (1 Day) and 0.48 ± 0.10 pg E1 S/μg protein/hr in the assay with brain sulfatase (15 Days).
